{"source": "patent US11339203B2", "about": "“Antitumor peptide and use thereof” (TOAGOSEI CO., LTD., priority 2018, dated 2022)", "system": "human melanoma cell line (A2058)", "type": "cell-based", "settings": "48 h", "procedure": "CAKI2 cells were cultured and adjusted to cell count of about 5×10^3 cells per single well of 96-well plate. The amount of medium at this time was made to be 100 μL per well. Next, the 96-well plate was arranged in a CO2 incubator and incubated for about 1 day (21 hours to 24 hours) under conditions of 37° C. and 5% CO2. […] Cell viability (%) was determined in the manner described below. […] Following completion of incubation, cell viability (%) was evaluated using a colorimetric method consisting of recovering the cell culture liquid containing the above-mentioned reagent together with measuring absorbance at wavelength of 450 nm based on reduction of tetrazolium salt (value corrected for absorbance at a wavelength of 650 nm: A450 to A650). More specifically, the cell viability (%) of each test cell line was calculated from the measured absorbance as a relative value based on cell viability of 100% for the measured value (measured absorbance) of the comparison test group that underwent incubation for 48 hours as described above in only medium not containing peptide. Antitumor activity was evaluated for Sample 2 in above-mentioned Test Example 1 targeted at multiple types of human-derived cultured tumor cells. […]", "note": "Read-outs that look alike come from different tables or passages of the source. Where no end group is shown, it is not given here.", "data": [{"substance": "FIGNLALSDLLAGVAYTANLLLKKRTLRKNDRKKR-NH2 [Sample 2]", "values": [{"measurement": "Cell Viability (%)", "setting": "12.5 μM", "result": 6.5, "unit": "%"}, {"measurement": "Cell Viability (%)", "setting": "25 μM", "result": 0.2, "unit": "%"}]}]}
